Measurements as given in patent publication US20080293640A1, “Polypeptide inhibitors of HSP27 kinase and uses therefor” (Arizona Board of Regents, A body Corporate, of the State of …, priority 2007, published 2008).

What was measured:
[1] = system: human saphenous vein (HSV); assay: Sodium nitroprusside induced relaxation of human saphenous vein segments in a muscle bath; conditions: pretreated 2 hrs with 25 μM SB203580 or 30 μM BIP; contracted with NE 0.5 μM; SNP 0-1 μM; n=3; FIG. 5
Method: Segments of human saphenous vein (HSV) were equilibrated in a muscle bath and pretreated with buffer (control), 25 μM SB203580 (SB) or 30 μM BIP for 2 hrs and then contracted with norepinephrine (NE, 0.5 μM) and relaxed with increasing doses of sodium nitroprusside (SNP, 0-1 μM).

[2] = system: Human saphenous vein rings; assay: CTGF expression and phosphorylation of HSP27 in saphenous vein organ culture model (western blot); conditions: BIP 5 or 10 μM, SB 20 μM; 14 days; related to actin, untreated set to 1; FIG. 7
Method: The human saphenous vein rings were cultured in RPMI medium supplemented with L-glutamine (1%), penicillin/streptomycin (1%) and FBS (30%) at 5% CO2 and 37° C. for 14 days. The rings were either untreated (Control, C) or treated with BIP (5 or 10 μM) or SB (20 μM). Rings were frozen after 14 days and protein was extracted and separated by SDS-PAGE and analyzed by western blot using the antibodies as indicated. The data is shown in FIG. 7; Panel A is a representative blot, and Panels B and C show the data summary. The bands were quantified by densitometry, and CTGF, phosphorylated HSP27 or non-phosphorylated HSP27 expressions were related to actin expression to correct for loading differences. The expression of CTGF and HSP27 and phospho-HSP27 in untreated rings was set to 1 for comparison of different blots. Data expressed as mean ±standard deviation of 6 experiments (panel right). *: p<0.05 compared to the untreated rings (C).

[3] = system: rat aortic smooth muscle (A7R5) cells; assay: LPA induced CTGF expression in A7R5 cells (western blot); assay type: cell-based; conditions: BIP 10 or 20 μM or SB 20 μM for 2 h prior to LPA 25 μM, 24 h; FIG. 9
Method: The cells were serum starved with DMEM medium supplemented with 1% BSA and 1% penicillin/streptomycin for 24 h. Cells were either untreated (C) or pre-treated with BIP (10 or 20 μM) or SB (20 μM) for 2 h prior the stimulation with lysophosphatidic acid (LPA, 25 μM). After 24 h the cells were lysed, protein extracted and separated by SDS-PAGE and analyzed by western blotting. The data are shown in FIG. 9; Panel A is a representative western blot, while Panel B provides the data. The bands were quantified by densitometry, and CTGF expression was related to actin expression to correct for loading differences. CTGF expression in untreated cells (C) was set to 1 for comparison of different blots. Data expressed as mean ±standard deviation of 3 experiments. *: p<0.05 compared to the cells stimulated with LPA.

[4] = system: Human saphenous vein rings; assay: Intimal thickening in human saphenous vein rings, 14 day organ culture; conditions: BIP 5 or 10 μM, SB 20 μM; 14 days; FIG. 6
Method: Human saphenous vein rings were cultured in RPMI medium supplemented with L-glutamine (1%), penicillin/streptomycin (1%) and FBS (30%) at 5% CO2 and 37° C. for 14 days. The rings were either untreated (C) or treated with BIP (5 or 10 μM), SB (20 μM) or recombinant HSP27 protein (r-HSP27). * p<0.05 compared to the control (untreated) rings. After 14 days, the rings were fixed in formalin, embedded in paraffin, sectioned at 10 micrometer and stained using Weigert's Resorcin Fuchsin. The slides were analyzed by Zeiss microscope with 40× objective. The intimal thickness was measured using Zeiss and Adobe Photoshop software.

[5] = system: Rat aortic smooth muscle, A7R5 cells; assay: ARS or LPA induced phosphorylation of HSP27 in A7R5 cells (western blot); assay type: cell-based; conditions: BIP 1, 5 or 10 μM or SB 20 μM for 2 h prior to ARS 500 μM or LPA 25 μM for 0.5 h; FIG. 8
Method: The cells were serum starved with DMEM medium supplemented with 1% BSA and 1% penicillin/streptomycin for 24 h. The phosphorylation of HSP27 was induced using arsenite (ARS, 500 μM) or lysophosphatidic acid (LPA, 25 μM) for 0.5 h. Cells were either untreated or pre-treated with BIP (1, 5 or 10 μM) or SB (20 μM) for 2 h prior to the stimulation with ARS or LPA. Cells were frozen after treatment and analyzed by SDS-PAGE and western blot. The data are shown in FIG. 8; Panels A and B are representative western blots, while Panels C and D provide the data. The bands were quantified by densitometry, and phosphorylated HSP27 or non-phosphorylated HSP27 expressions were related to actin expression to correct for loading differences. The ratio of phosphorylated HSP27/HSP27 (relative p-HSP27/HSP27) in untreated cells was set to 1 for comparison of different blots. Data expressed as mean ±standard deviation of 4 experiments. *: p<0.05 compared to the untreated cells (C).

human keloid fibroblasts [6] = assay: TGF-β1 induced expression of CTGF and collagen in human keloid fibroblasts (immunoblot); assay type: cell-based
Description: (§1) One important downstream signaling event in the TGFB signaling pathway is the activation of HSP27 kinase. We have designed a cell permeable inhibitor of this kinase (BIP) that effectively blocks its activity. In this study, we employ stable isotopic labeling by amino acids in cell culture (SILAC) as a means to quantitate the protein expression differences manifest during 1) TGF-β1 stimulation, 2) TGF-β1 stimulation in the presence of BIP, or 3) no treatment at all (control) in a keloid fibroblast cell line. Human keloid fibroblasts were grown to 80% confluence, and then serum-starved for 48 h. The cells were subsequently stimulated with nothing (control), with 1.25 ng/ml of transforming growth factor beta 1 (TGFβ) for 24 h, or 10 μM of a BIP for 2 h followed by TGFβ1 for 24 h (TGFβ+BIP). The expression of CTGF and collagen was assessed by immunoblot and normalized to b-actin expression. Phospho-HSP27 was expressed as a ratio to endogenous HSP27. Quantitative results represent average ±standard deviation from 3 independent experiments.
Human keloid fibroblasts were maintained in Dulbecco's modified Eagle's medium (DMEM) supplemented with fetal calf serum (10%) and streptomycin/penicillin (1%). They were grown to 80% confluence, and then serum-starved for 48 h. […] The expression of CTGF and collagen was assessed by immunoblot and normalized to GAPDH (loading control) expression. Results in the graphs (FIG. 3) represent average ±standard deviation from 3 independent experiments.
In a further example, BIP was used at lower concentrations (5 or 10 μM).

human keloid fibroblasts [7] = assay: TGF-β1 induced phosphorylation of HSP27 in human keloid fibroblasts (fluorescence microscopy); assay type: cell-based; conditions: 60 μM BIP for 2 h followed by TGF-β1 1.25 ng/ml for 24 h
Method: Human keloid fibroblasts were maintained in Dulbecco's modified Eagle's medium (DMEM) supplemented with fetal calf serum (10%) and streptomycin/penicillin (1%). They were grown on cover slips and then serum-starved for 48 h. […] Cells were washed, processed for microscopy and labelled with Cy2 for phospho-HSP27 (ser 78/82, green fluorescence), Alexa 586-conjugated phalloidin (red) to reveal the actin cytoskeleton and DAPI (blue) to reveal nucleus, magnification 40×. Pre-treatment of cells with BIP followed by TGFb1 reduced phosphorylation of HSP27 in keloid fibroblasts.

[8] = system: Human Aortic Endothelial Cells; assay: Endothelial cell proliferation (CyQuant NF Cell Proliferation Assay); assay type: cell-based; conditions: 1, 10 or 50 μM BIP, 16 hours
Method: Human Aortic Endothelial Cells (Passage 2) (Cascade Biologics) were seeded into 96-well plates at a concentration of 2000 cells per well as determined using a hemocytometer and allowed to adhere for 4 hours. They were then treated with a final concentration of 1, 10 or 50 μM MK2 inhibitor peptide (BIP), 1, 10, or 50 μM scrambled peptide (SCR), or and equal volume of PBS. Cells were returned to the incubator for 16 hours and counted on a Molecular Devices M5 spectrophotometer after 1 hour treatment with CyQuant NF Cell Proliferation Assay (Invitrogen).

human keloid fibroblasts [9] = assay: TGF-β1 induced stress fiber formation in human keloid fibroblasts (phalloidin microscopy); assay type: cell-based; conditions: 60 μM BIP for 2 h followed by TGF-β1 1.25 ng/ml for 24 h
Method: Human keloid fibroblasts were maintained in Dulbecco's modified Eagle's medium (DMEM) supplemented with fetal calf serum (10%) and streptomycin/penicillin (1%). They were grown on cover slips and then serum-starved for 48 h. […] Cells were washed, processed for microscopy and labelled with Alexa 586-conjugated phalloidin to reveal the actin cytoskeleton and DAPI to reveal nucleus, magnification 40×.

human keloid fibroblasts [10] = assay: TGF-β1 induced phosphorylation of HSP27 in human keloid fibroblasts (immunoblot); assay type: cell-based
Description: as §1
Human keloid fibroblasts were maintained in Dulbecco's modified Eagle's medium (DMEM) supplemented with fetal calf serum (10%) and streptomycin/penicillin (1%). They were grown to 80% confluence, and then serum-starved for 48 h. […] The phosphorylation of HSP27 was assessed by immunoblot analysis using antibodies as indicated. B, The ratio of P-P27 to P27 was calculated and the percent phosphorylation was determined with respect to the phosphorylation obtained with TGF b (lane 2).
In a separate example, lower concentrations of BIP (5 μM and 10 μM) were employed. […] TGF-β1-stimulated cells were treated with BIP (5 or 10 μM) for 24 h, and HSP27 and phospho-HSP27 levels were quantified relative to β-actin expression to correct for loading differences and normalized to untreated levels.

[11] = system: rat aortic smooth muscle (A7R5) cells; assay: Scratch migration of A7R5 cells stimulated with LPA or TGF; assay type: cell-based; conditions: BIP 10 μM for 2 h prior to LPA 25 μM or TGF 2.5 ng/mL; FIG. 10
Method: A7R5 cells were serum starved with DMEM medium supplemented with 1% BSA and 1% penicillin/streptomycin for 24 h. A scratch made in the dishes using the tip of a pipette, and the cells were rinsed 3 times with PBS. Cells were untreated (C) or pre-treated with BIP (10 μM) for 2 h prior the stimulation with lysophosphatidic acid (LPA, 25 μM) or TGF (2.5 ng/mL). *: p<0.05 compared to the cells stimulated with LPA or TGF.

MAPKAPKII = MAPKAPKII (Homo sapiens, UniProt P49137); assay: In vitro phosphorylation of recombinant HSP27 with […] (immunoblot); assay type: biochemical; conditions: MAPKAPKII 50 ng, 30 min at 30° C.; ratio P-P27 to P27, percent phosphorylation vs no inhibitor; FIG. 1
MAPKAPKII, sequence (P49137 whole entry): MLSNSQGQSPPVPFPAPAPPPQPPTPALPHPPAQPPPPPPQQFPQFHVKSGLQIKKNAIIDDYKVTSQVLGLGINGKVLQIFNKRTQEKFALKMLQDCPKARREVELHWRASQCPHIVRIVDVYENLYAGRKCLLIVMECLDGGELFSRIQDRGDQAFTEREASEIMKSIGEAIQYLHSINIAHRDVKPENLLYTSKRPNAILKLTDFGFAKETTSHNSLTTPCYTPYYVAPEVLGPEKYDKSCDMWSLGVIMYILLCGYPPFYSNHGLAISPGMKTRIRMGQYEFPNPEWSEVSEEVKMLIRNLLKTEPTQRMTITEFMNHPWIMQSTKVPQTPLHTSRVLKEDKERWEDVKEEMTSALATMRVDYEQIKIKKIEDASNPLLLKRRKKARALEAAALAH
Method: Recombinant HSP27 ([…]) was phosphorylated with no enzyme (control, lane 1), […] (50 ng) in the absence (lane 2) or presence of 200 μM ([…]) (SEQ ID NO: 44) obtained from Calbiochem, (lane 3), or BIP (HSP27 kinase inhibitor peptide, […] (SEQ ID NO: 45) (lane 4) or HSP20 phosphopeptide (PTD-P20, lane 4) for 30 min at 30° C. The reaction mixtures were inactivated and separated by SDS-PAGE and transferred to PVDF membrane. The blot was probed with antibodies against HSP27 and phospho-HSP27. The ratio of P-P27 to P27 was calculated and the percent phosphorylation was determined with respect to the phosphorylation obtained in the absence of inhibitor (lane 2). This blot is a representative of 2 separate experiments.

[12] = 10 μM BIP for 2 h followed by TGFβ1 1.25 ng/ml for 24 h
[13] = 60 μM BIP for 2 h followed by TGF-β1 1.25 ng/ml for 24 h, normalized to GAPDH, FIG. 3

| Molecule | sodium nitroprusside induced relaxation of saphenous vein [1] | CTGF expression in saphenous vein [2] | phosphorylation of HSP27 in saphenous vein [2] | LPA induced CTGF expression [3] | thickening of the intimal layer in saphenous vein [4] | phosphorylation of HSP27 (relative p-HSP27/HSP27) [5] | TGFβ1 induced expression of CTGF (human keloid fibroblasts [6]; [12]) | TGFβ1 induced expression of collagen (human keloid fibroblasts [6]; [12]) | TGF-β1 induced expression of CTGF (human keloid fibroblasts [6]; [13]) | TGF-β1 induced expression of collagen (human keloid fibroblasts [6]; [13]) | TGF-β1 induced phosphorylation of HSP27 (ser 78/82), fluorescence microscopy (human keloid fibroblasts [7]) | EC proliferation [8] | central actin (human keloid fibroblasts [9]) | stress fiber formation (human keloid fibroblasts [9]) | phosphorylation of HSP27 (phospho-HSP27 as ratio to endogenous HSP27) (human keloid fibroblasts [10]; 10 μM BIP for 2 h followed by TGFβ1 for 24 h, FIG. 2) | TGF-β1 induced phosphorylation of HSP27, immunoblot (human keloid fibroblasts [10]; 10 μM BIP for 24 h, TGF-β1-stimulated cells, relative to β-actin, normalized to untreated) | TGF-β1 induced phosphorylation of HSP27 (ratio P-P27 to P27), immunoblot (human keloid fibroblasts [10]; 60 μM BIP for 2 h followed by TGFβ-1 […] for 24 h, n=3, FIG. 4) | migration of cells [11] | MAPKAPKII induced phosphorylation of HSP27 in vitro (MAPKAPKII) |
| --- | --- | --- | --- | --- | --- | --- | --- | --- | --- | --- | --- | --- | --- | --- | --- | --- | --- | --- | --- |
| C[S+]([O-])c1ccc(-c2nc(-c3ccncc3)c(-c3ccc(F)cc3)[nH]2)cc1 (stereo not shown) [SB, SB 203580, reference compound] | significant increases | Inhibits | Inhibits | Inhibits | Inhibits | Inhibits | – | – | – | – | – | – | – | – | – | – | – | – | – |
| WLRRIKAWLRRIKALNRQLGVAA [BIP] | significant increases | inhibits | inhibits | inhibits | inhibits | inhibits | inhibits | inhibits | inhibits | inhibits | reduced | Does Not Inhibit | loss of central actin | reduced stress fiber formation | reduces | inhibits | effectively inhibited | inhibits | inhibits |
